Results: patent US20230278972A1, “SUBSTITUTED HALOALKYL SULFONANILIDE HERBICIDES” (FMC Corporation, priority 2020, published 2023)

Experiments:
Assay type in all cases: in vivo
[1] = test system: kochia (Bassia scoparia); test: Test A postemergence, kochia; conditions: Postemergence, 0 to 100 scale (0 no effect, 100 complete control); for Plant response rating, Kochia: 125 g ai/ha; for Kochia plant response rating: 500 g ai/ha, visual injury vs untreated controls after approx. 10 days
Description: (§1) Seeds of plant species selected from barnyardgrass (Echinochloa crus-galli), kochia (Bassia scoparia), ragweed (common ragweed, Ambrosia artemisiifolia), Ryegrass, Italian (Italian ryegrass, Lolium multiflorum), Foxtail, Giant (giant foxtail, Setaria faberi), and pigweed (Amaranthus retroflexus) were planted into a blend of loam soil and sand and treated preemergence with a directed soil spray using test chemicals formulated in a non-phytotoxic solvent mixture which included a surfactant. At the same time, plants selected from these weed species and also wheat (Triticum aestivum), corn (Zea mays), blackgrass (Alopecurus myosuroides), and galium (catchweed bedstraw, Galium aparine) were planted in pots containing the same blend of loam soil and sand and treated with postemergence applications of test chemicals formulated in the same manner. Plants ranged in height from 2 to 10 cm and were in the one- to two-leaf stage for the postemergence treatment. […] A dash (-) response means no test result.

[2] = test system: Foxtail, Giant (giant foxtail, Setaria faberi); test: Test A preemergence, Foxtail, Giant; conditions: Preemergence; for Foxtail, Giant plant response rating: 125 g ai/ha, visual injury on 0 to 100 scale (0 no effect, 100 complete control), approximately 10 days; for Plant response rating, Foxtail, Giant: 500 g ai/ha, 0 to 100 scale (0 no effect, 100 complete control)
Description: as §1

[3] = test system: barnyardgrass (Echinochloa crus-galli); test: Test A preemergence, barnyardgrass; conditions: Preemergence; for Barnyardgrass plant response rating: 125 g ai/ha, visual injury on 0 to 100 scale (0 no effect, 100 complete control), approximately 10 days; for Plant response rating, Barnyardgrass: 500 g ai/ha, 0 to 100 scale (0 no effect, 100 complete control)
Description: as §1

[4] = test system: pigweed (Amaranthus retroflexus); test: Test A postemergence, pigweed; conditions: Postemergence, 0 to 100 scale (0 no effect, 100 complete control); for Plant response rating, Pigweed: 125 g ai/ha; for Pigweed plant response rating: 500 g ai/ha, visual injury vs untreated controls after approx. 10 days
Description: as §1

[5] = test system: blackgrass (Alopecurus myosuroides); test: Test A postemergence, blackgrass; conditions: Postemergence, 0 to 100 scale (0 no effect, 100 complete control); for Plant response rating, Blackgrass: 125 g ai/ha; for Blackgrass plant response rating: 500 g ai/ha, visual injury vs untreated controls after approx. 10 days
Description: as §1

[6] = test system: kochia (Bassia scoparia); test: Test A preemergence, kochia; conditions: Preemergence; for Kochia plant response rating: 125 g ai/ha, visual injury on 0 to 100 scale (0 no effect, 100 complete control), approximately 10 days; for Plant response rating, Kochia: 500 g ai/ha, 0 to 100 scale (0 no effect, 100 complete control)
Description: as §1

[7] = test system: ragweed (common ragweed, Ambrosia artemisiifolia); test: Test A postemergence, ragweed; conditions: Postemergence, 0 to 100 scale (0 no effect, 100 complete control); for Plant response rating, Ragweed: 125 g ai/ha; for Ragweed plant response rating: 500 g ai/ha, visual injury vs untreated controls after approx. 10 days
Description: as §1

[8] = test system: Ryegrass, Italian (Italian ryegrass, Lolium multiflorum); test: Test A preemergence, Ryegrass, Italian; conditions: Preemergence; for Ryegrass, Italian plant response rating: 125 g ai/ha, visual injury on 0 to 100 scale (0 no effect, 100 complete control), approximately 10 days; for Plant response rating, Ryegrass, Italian: 500 g ai/ha, 0 to 100 scale (0 no effect, 100 complete control)
Description: as §1

[9] = test system: ragweed (common ragweed, Ambrosia artemisiifolia); test: Test A preemergence, ragweed; conditions: Preemergence; for Ragweed plant response rating: 125 g ai/ha, visual injury on 0 to 100 scale (0 no effect, 100 complete control), approximately 10 days; for Plant response rating, Ragweed: 500 g ai/ha, 0 to 100 scale (0 no effect, 100 complete control)
Description: as §1

[10] = test system: wheat (Triticum aestivum); test: Test A postemergence, wheat; conditions: Postemergence, 0 to 100 scale (0 no effect, 100 complete control); for Plant response rating, Wheat: 125 g ai/ha; for Wheat plant response rating: 500 g ai/ha, visual injury vs untreated controls after approx. 10 days
Description: as §1

[11] = test system: galium (catchweed bedstraw, Galium aparine); test: Test A postemergence, galium; conditions: Postemergence, 0 to 100 scale (0 no effect, 100 complete control); for Plant response rating, Galium: 125 g ai/ha; for Galium plant response rating: 500 g ai/ha, visual injury vs untreated controls after approx. 10 days
Description: as §1

[12] = test system: Foxtail, Giant (giant foxtail, Setaria faberi); test: Test A postemergence, Foxtail, Giant; conditions: Postemergence, 0 to 100 scale (0 no effect, 100 complete control); for Plant response rating, Foxtail, Giant: 125 g ai/ha; for Foxtail, Giant plant response rating: 500 g ai/ha, visual injury vs untreated controls after approx. 10 days
Description: as §1

[13] = test system: barnyardgrass (Echinochloa crus-galli); test: Test A postemergence, barnyardgrass; conditions: Postemergence, 0 to 100 scale (0 no effect, 100 complete control); for Plant response rating, Barnyardgrass: 125 g ai/ha; for Barnyardgrass plant response rating: 500 g ai/ha, visual injury vs untreated controls after approx. 10 days
Description: as §1

[14] = test system: corn (Zea mays); test: Test A postemergence, corn; conditions: Postemergence, 0 to 100 scale (0 no effect, 100 complete control); for Plant response rating, Corn: 125 g ai/ha; for Corn plant response rating: 500 g ai/ha, visual injury vs untreated controls after approx. 10 days
Description: as §1

[15] = test system: Ryegrass, Italian (Italian ryegrass, Lolium multiflorum); test: Test A postemergence, Ryegrass, Italian; conditions: Postemergence, 0 to 100 scale (0 no effect, 100 complete control); for Plant response rating, Ryegrass, Italian: 125 g ai/ha; for Ryegrass, Italian plant response rating: 500 g ai/ha, visual injury vs untreated controls after approx. 10 days
Description: as §1

SMILES | Plant response rating, Kochia [1] | Kochia plant response rating [1] | Foxtail, Giant plant response rating [2] | Plant response rating, Foxtail, Giant [2] | Barnyardgrass plant response rating [3] | Plant response rating, Barnyardgrass [3] | Plant response rating, Pigweed [4] | Pigweed plant response rating [4] | Plant response rating, Blackgrass [5] | Blackgrass plant response rating [5] | Kochia plant response rating [6] | Plant response rating, Kochia [6] | Plant response rating, Ragweed [7] | Ragweed plant response rating [7] | Ryegrass, Italian plant response rating [8] | Plant response rating, Ryegrass, Italian [8] | Ragweed plant response rating [9] | Plant response rating, Ragweed [9] | Plant response rating, Wheat [10] | Wheat plant response rating [10] | also measured
Cc1cc(C)c(C2=NOC3CCCC23)cc1NS(=O)(=O)C(F)(F)F (stereo not drawn) [Compound 166] | 50 | 80 | 80 | 100 | 100 | 100 | 40 | 90 | 10 | 20 | 90 | 100 | 40 | 80 | 70 | 100 | 20 | 80 | 70 | 70 | Plant response rating, Galium [11]: 80; Galium plant response rating [11]: 90; Plant response rating, Foxtail, Giant [12]: 50; Foxtail, Giant plant response rating [12]: 60; Plant response rating, Barnyardgrass [13]: 90; Barnyardgrass plant response rating [13]: 90; Plant response rating, Corn [14]: 10; Corn plant response rating [14]: 50; Plant response rating, Ryegrass, Italian [15]: 90; Ryegrass, Italian plant response rating [15]: 90
Cc1cc(C)c(C2=NOC3(CCC(F)(F)CC3)C2)cc1NS(=O)(=O)C(F)(F)F [Compound 172] | 40 | 80 | 90 | 100 | 90 | 90 | 70 | 90 | 0 | 40 | 60 | 90 | 60 | 80 | 100 | 100 | 40 | 90 | 30 | 70 | Plant response rating, Galium [11]: 90; Galium plant response rating [11]: 90; Plant response rating, Foxtail, Giant [12]: 20; Foxtail, Giant plant response rating [12]: 80; Plant response rating, Barnyardgrass [13]: 60; Barnyardgrass plant response rating [13]: 80; Plant response rating, Corn [14]: 40; Corn plant response rating [14]: 70; Plant response rating, Ryegrass, Italian [15]: 60; Ryegrass, Italian plant response rating [15]: 80
